Test results from patent US20110257215A1, “NOVEL CO-CRYSTAL OF TIOTROPIUM BROMIDE” (Boehringer Ingelheim Pharma GmbH CO.KG, priority 2006, published 2011).

Conditions: solid crystalline form; no method or figures given

## C[N+]1(C)C2CC(OC(=O)C(O)(c3cccs3)c3cccs3)CC1C1OC12.NC(N)=O.[Br-] (stereo not shown) [tiotropium bromide-urea co-crystal]
  hygroscopical behaviour: only very little hygroscopical behaviour
